Measured values from patent US20090263521A1, “COMPOSITION FOR THE TREATMENT OF CANCERS AND INHIBITION OF METASTASIS CONTAINING EXTRACTS OR FRACTIONS OF THE MAGNOLIA OBOVATA” (KOREA RESEARCH INSTITUTE OF BIOSCIENCE AND BIOTECHNOLOGY, priority 2008, published 2009).

Test system: human colon cancer cell line SW620
Test: In vivo anticancer effect, SW620 transplanted nude mice
Set-up: species or system BALB/c nude mice
Description: Female SPF BALB/c nude mice purchased from Charles River, Japan, were used as test animals. They were at 6 weeks and weighed 14-17 g. Before being used for experiments, the test animals were adapted at least one week in a clean animal lab. Temperature of the animal lab was 21±2° C. and humidity was set at 55±5%. Light/dark cycle was automatically regulated as 12/12. The solid feeds for the test animals were radiation sterilized products (Polas International, Seoul, Korea). Drinking water was sterilized by autoclave. Feeds and drinking water were given freely.
For the cancer cell line, human colon cancer cell line SW620 purchased from ATCC, USA and stored at Korean Research Institute of Bioscience and Biotechnology was used. […] On the final day of culture, every cell was collected and counted and the final cell concentration was regulated to 1×10^7 cells/ml by adding saline.
SW620 cancer cells were hypodermically injected in the right armpit in-between the shoulder and the wall of chest by 0.3 ml at the concentration of 3×10^6 cells/mouse. […] Weight changes of the test animals were measured three times per week. Tumor volume was measured 7 times from day 5 to day 20 in every test animal. Precisely, the tumor volume was measured by measuring three dimensions of the tumor using Vernier Caliper and then calculated by the following formula: […]

- weight loss (adriamycin administered positive control, p<0.001): 13.1%
SMILES: COc1cccc2c1C(=O)c1c(O)c3c(c(O)c1C2=O)C[C@@](O)(C(=O)CO)C[C@@H]3O[C@H]1C[C@H](N)[C@H](O)[C@H](C)O1 [adriamycin]
- tumor growth inhibition (positive control, P<0.001): 58.0%
